Reference: patent US20250197368A1 (priority 2020, published 2025)

What was measured:
[1] = tested on: human α2β3γ2 GABAARs; assay: In vitro electrophysiological recording assay (automated patch-clamp), α2-GABAAR relative efficacy; format: cell-based; details: % efficacy normalised to diazepam; GABA EC10-20; concentration generally >= 100 times Ki
Description: The efficacy of modulators was evaluated using the automated patch-clamp platforms QPatch16 (Sophion, Copenhagen, Denmark) or SyncroPatch 384PE (Nanion, Germany).
For QPatch electrophysiology testing L(tk^−) cells stably expressing human α1β3γ2, α2β3γ2, α3β3γ2, α5β3γ2 GABAARs were used. HEK293 cells stably expressing human α1β3γ2L, α2β3γ2L, α3β3γ2L and α5β3γ2L GABAARs were used for the SyncroPatch 384PE experiments.
All experiments were carried out at room temperature (20-22° C.) using a standard whole cell procedure and physiological solutions. Gigaseals were formed upon execution of a combined suction/voltage protocol with subsequent increased suction leading to the whole-cell configuration.
The currents recorded were acquired at either 1 KHz or 2 KHz and filtered using a Bessel filter. Whole-cell currents were measured at a holding potential of-65 mV (QPatch) or −80 mV (SyncroPatch).
For QPatch experiments, the extracellular solution contained of: 145 mM NaCl, 4 mM KCl, 1 mM MgCl2, 2 mM CaCl2), 10 mM HEPES, 10 mM D-glucose (pH 7.4), and the intracellular solution consisted of: 96 mM KCl, 28 mM CsCl, 25 mM KOH, 4.3 mM CaCl2), 1.4 mM MgCl2, 10 mM EGTA, 10 mM HEPES, 3 mM MgATP (pH 7.2). The osmolarities of the extracellular and intracellular solutions were 305 and 295 mOsm respectively.
For SyncroPatch experiments, the extracellular recording solution contained: 140 mM NaCl, 4 mM KCl, 2 mM CaCl2), 1 mM MgCl2, 10 mM HEPES, 5 mM glucose (pH 7.4 with NaOH and osmolarity of c. 300-310 mOsm). The intracellular recording solution consisted of: 90 mM KCl, 50 mM KF, 1.5 mM MgCl2, 11.1 mM EGTA and 10 mM HEPES (pH 7.2 with KOH and osmolarity of c. 300 mOsm). 2 mM of NaATP was added to the intracellular solution on the day of testing.
The effects of modulators were evaluated in the presence of a submaximal GABA concentration, giving typically less than 30% activation of the response elicited by a saturating GABA concentration. To check and ensure baseline current stability before compound addition, two to five consecutive applications of GABA EC10-20 separated by wash steps were performed before compound addition. The test compound was applied 1 min at least prior to co-application with GABA EC10-20. Following a further wash step, a saturating concentration of GABA was applied at the end of each recording, allowing the accurate evaluation for each cell of the percentage baseline activation elicited by the submaximal GABA applied.
The compounds were first dissolved in DMSO as a 10 mM stock and then further diluted to the testing concentrations so that the final DMSO concentration in the extracellular recording solution was 0.1% (QPatch) or 0.2% (SyncroPatch).
The % efficacy of modulators was determined from the GABA elicited currents recorded in the presence and absence of the test compound, using the formula:
[((compound peak current−leak)−(GABA peak current-leak))/(GABA peak current−leak)]*100,
where ‘leak’ is the leak baseline current at the holding potential, ‘compound peak current’ is the current elicited by co-application of compound and GABA, and ‘GABA peak current’ is the current elicited by GABA alone at the last GABA application before compound addition. The results were presented as ‘relative efficacy’ for each compound generally at a concentration equal or higher than 100 times their determined Ki. The relative efficacy of a compound was calculated by normalising its % efficacy to the corresponding % efficacy of diazepam that was separately determined.

[2] = biological target: human α2β3γ2 GABAARs (benzodiazepine site) (Homo sapiens (Human), UniProt P18507+P47869); assay: In vitro radioligand binding assay ([3H]Ro15-1788 displacement), α2-GABAAR Ki
Chain of human α2β3γ2 GABAARs (benzodiazepine site) (P47869 29-451): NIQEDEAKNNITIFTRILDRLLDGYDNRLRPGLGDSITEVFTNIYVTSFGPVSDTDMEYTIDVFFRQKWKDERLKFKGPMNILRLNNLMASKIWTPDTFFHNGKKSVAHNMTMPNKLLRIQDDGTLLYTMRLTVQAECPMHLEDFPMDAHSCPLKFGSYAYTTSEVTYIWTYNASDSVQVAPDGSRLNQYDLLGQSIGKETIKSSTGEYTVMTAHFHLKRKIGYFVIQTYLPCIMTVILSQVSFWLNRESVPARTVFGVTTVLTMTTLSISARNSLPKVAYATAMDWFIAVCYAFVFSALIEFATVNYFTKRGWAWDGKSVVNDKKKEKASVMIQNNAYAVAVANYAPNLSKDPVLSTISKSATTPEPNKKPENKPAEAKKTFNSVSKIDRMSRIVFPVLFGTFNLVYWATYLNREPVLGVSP
Chain of human α2β3γ2 GABAARs (benzodiazepine site) (P28472 26-473 partner): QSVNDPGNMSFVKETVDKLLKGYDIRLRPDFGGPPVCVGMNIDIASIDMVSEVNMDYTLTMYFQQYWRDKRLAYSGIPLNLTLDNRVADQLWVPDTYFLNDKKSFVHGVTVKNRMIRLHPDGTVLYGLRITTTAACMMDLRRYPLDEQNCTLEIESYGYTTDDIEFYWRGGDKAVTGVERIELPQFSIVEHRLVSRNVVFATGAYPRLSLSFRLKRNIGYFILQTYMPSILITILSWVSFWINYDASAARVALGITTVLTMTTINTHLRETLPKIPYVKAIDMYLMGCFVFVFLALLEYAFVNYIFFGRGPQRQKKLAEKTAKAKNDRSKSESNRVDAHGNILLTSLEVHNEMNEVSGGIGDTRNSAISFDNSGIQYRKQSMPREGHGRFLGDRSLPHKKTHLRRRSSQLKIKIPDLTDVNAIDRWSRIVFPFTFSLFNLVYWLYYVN
Chain of human α2β3γ2 GABAARs (benzodiazepine site) (P18507 40-475): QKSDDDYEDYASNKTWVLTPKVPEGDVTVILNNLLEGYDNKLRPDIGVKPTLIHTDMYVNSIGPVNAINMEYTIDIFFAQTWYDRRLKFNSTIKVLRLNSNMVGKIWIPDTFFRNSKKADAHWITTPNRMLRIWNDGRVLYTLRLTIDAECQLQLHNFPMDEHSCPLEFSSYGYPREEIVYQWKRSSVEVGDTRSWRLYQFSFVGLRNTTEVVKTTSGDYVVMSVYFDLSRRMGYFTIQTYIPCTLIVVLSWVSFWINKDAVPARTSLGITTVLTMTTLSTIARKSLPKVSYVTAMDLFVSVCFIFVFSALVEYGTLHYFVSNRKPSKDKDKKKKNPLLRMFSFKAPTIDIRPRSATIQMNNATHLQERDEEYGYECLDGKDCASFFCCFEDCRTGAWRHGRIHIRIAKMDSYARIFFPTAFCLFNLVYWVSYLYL
Description: The affinity (Ki) of compounds for the benzodiazepine site of human recombinant GABAARs was measured by their ability to inhibit the binding of the selective benzodiazepine antagonist [^3H]Ro15-1788 ([^3H] flumazenil).
Mouse L(tk^−) cells stably expressing human α1β3γ2, α2β3γ2, α3β3γ2, α5β3γ2 GABAARs were generated by transfection of the individual subunits in the dexamethasone-inducible expression vector pMSGneo in mouse L(tk^−) cells (Hadingham et al., 1993, Mol. Pharmacol. 43:970-975 and 1993, Mol. Pharmacol. 44:1211-1218).
L(tk^−) cells stably expressing human α1β3γ2, α2β3γ2, α3β3γ2, α5β3γ2 GABAARs were maintained in DMEM F12 medium supplemented with 10% Foetal Bovine Serum, 1% Penicillin/Streptomycin and 1 mg/mL Geneticin G418 in an incubator at 37° C. with a humidified atmosphere with 5% CO2. Dexamethasone was added to the culture medium to induce GABAAR expression.
L(tk−) cells were harvested and membranes were prepared for each receptor combination in either TE buffer (10 mM Tris·CI/0.1 mM EDTA, pH 7.5) or phosphate buffer (K2PO4 10 mM, pH 7.0) (Hadingham et al. (1992) Proc. Natl. Acad. Sci. USA; 89 (14): 6378-82). Protein concentration, receptor expression and the Kd of [^3H]Ro15-1788 were determined before Ki value of the compounds were evaluated. For Kd evaluation, saturation binding curves were obtained by incubating membrane with various concentrations of [^3H]Ro15-1788 (82.5 Ci/mM), with nonspecific binding measured in the presence of 1-3 μM TP003.
For Ki evaluation, cell membranes were incubated with 4 nM [^3H]Ro15-1788 along with a range of concentrations of test compound. Nonspecific binding was determined using 1-3 μM TP003. All incubations were performed for 1 hour at 4° C. in assay buffer. The total assay volume was 0.5 mL, containing 40 μg/well α1β3γ2, 30 μg/well α2β3γ2, 40 μg/well α3β3γ2 and 30 μg/well for α5β3γ2 of membrane protein. Incubations were terminated by filtration and washing with ice cold Tris-HCl buffer (50 mM, pH=7.4) over Whatman GF/B filters and the radioactivity of the filters was measured using liquid scintillation counting.
The % inhibition of [^3H]Ro15-1788 binding was plotted as a function of compound concentration and the IC50 calculated. From the IC50, the affinity (Ki) was calculated using the method of Cheng and Prusoff using the Kd values obtained for [^3H]Ro15-1788.

SMILES | α2-GABAAR Relative Efficacy (vs. Diazepam) [1] | Ki [2] [nM]
CCCNC(=O)c1c(N)c2cccc(-c3cncc(C)n3)c2[nH]c1=O [Example 46, 4-Amino-8-(6-methylpyrazin-2-yl)-2-oxo-N-propyl-1,2-dihydroquinoline-3-carboxamide] | 0.02 | 2.37
CCCNC(=O)c1c(N)c2cccc(-c3cncc(OC)n3)c2[nH]c1=O [Example 47, 4-Amino-8-(6-methoxypyrazin-2-yl)-2-oxo-N-propyl-1,2-dihydroquinoline-3-carboxamide] | 0.08 | 0.23
CCCNC(=O)c1c(N)c2cccc(-c3cccc(OC)c3)c2[nH]c1=O [Example 48, 4-Amino-8-(3-methoxyphenyl)-2-oxo-N-propyl-1H-quinoline-3-carboxamide] | 0.39 | 1.84
CCCNC(=O)c1c(N)c2cccc(-c3cc(OC)ccc3F)c2[nH]c1=O [Example 49, 4-Amino-8-(2-fluoro-5-methoxy-phenyl)-2-oxo-N-propyl-1H-quinoline-3-carboxamide] | 0.26 | 0.43
CCCNC(=O)c1c(N)c2cccc(-c3c(F)cccc3F)c2[nH]c1=O [Example 50, 4-Amino-8-(2,6-difluorophenyl)-2-oxo-N-propyl-1H-quinoline-3-carboxamide] | 0.34 | 0.21
CCCNC(=O)c1c(N)c2cccc(-c3c(C)noc3C)c2[nH]c1=O [Example 54, 4-Amino-8-(3,5-dimethylisoxazol-4-yl)-2-oxo-N-propyl-1H-quinoline-3-carboxamide] | 0.07 | 20
CCNC(=O)c1c(N)c2cccc(-c3cnccc3OC)c2[nH]c1=O [Example 56, 4-Amino-N-ethyl-8-(4-methoxy-3-pyridyl)-2-oxo-1H-quinoline-3-carboxamide] | 0.34 | 6.62
COc1ccncc1-c1cccc2c(N)c(C(=O)NCC3CC3)c(=O)[nH]c12 [Example 59, 4-Amino-N-(cyclopropylmethyl)-8-(4-methoxy-3-pyridyl)-2-oxo-1H-quinoline-3-carboxamide] | 0.27 | 2.01
COc1ccncc1-c1cccc2c(N)c(C(=O)NCC(C)C)c(=O)[nH]c12 [Example 60, 4-Amino-N-isobutyl-8-(4-methoxy-3-pyridyl)-2-oxo-1H-quinoline-3-carboxamide] | 0.65 | 15.4
COCCNC(=O)c1c(N)c2cccc(-c3cnccc3OC)c2[nH]c1=O [Example 63, 4-Amino-N-(2-methoxyethyl)-8-(4-methoxy-3-pyridyl)-2-oxo-1H-quinoline-3-carboxamide] | 0.65 | 24.5
COc1ccncc1-c1cccc2c(N)c(C(=O)NCCO)c(=O)[nH]c12 [Example 64, 4-Amino-N-(2-hydroxyethyl)-8-(4-methoxy-3-pyridyl)-2-oxo-1H-quinoline-3-carboxamide] | 0.34 | 84.6
COc1ccncc1-c1cccc2c(N)c(C(=O)NCCCF)c(=O)[nH]c12 [Example 67, 4-Amino-N-(3-fluoropropyl)-8-(4-methoxy-3-pyridyl)-2-oxo-1H-quinoline-3-carboxamide] | 0.54 | 3.74
COc1ccncc1-c1cccc2c(N)c(C(=O)NCCC(F)F)c(=O)[nH]c12 [Example 68, 4-Amino-N-(3,3-difluoropropyl)-8-(4-methoxy-3-pyridyl)-2-oxo-1H-quinoline-3-carboxamide] | 0.54 | 4.88
Cc1nn(C)cc1-c1cccc2c(N)c(C(=O)NCCC(F)(F)F)c(=O)[nH]c12 [Example 73, 4-Amino-8-(1,3-dimethylpyrazol-4-yl)-2-oxo-N-(3,3,3-trifluoropropyl)-1H-quinoline-3-carboxamide] | 0.48 | 3.08
CCCNC(=O)c1c(N)c2cccc(-c3cccnc3OC)c2n(C)c1=O [Example 76, 4-Amino-8-(2-methoxy-3-pyridyl)-1-methyl-2-oxo-N-propyl-quinoline-3-carboxamide] | 0.42 | 6.23
COc1ccncc1-c1cccc2c(N)c(C(=O)NCC3CC3)c(=O)n(C)c12 [Example 78, 4-Amino-N-(cyclopropylmethyl)-8-(4-methoxy-3-pyridyl)-1-methyl-2-oxo-quinoline-3-carboxamide] | 0.70 | 2.11
COc1ccncc1-c1cccc2c(N)c(C(=O)NCC(C)C)c(=O)n(C)c12 [Example 79, 4-Amino-N-isobutyl-8-(4-methoxy-3-pyridyl)-1-methyl-2-oxo-quinoline-3-carboxamide] | 0.81 | 2.51
CCCNC(=O)c1c(N)c2cccc(-c3cn(C)nc3C)c2n(C)c1=O [Example 80, 4-Amino-8-(1,3-dimethylpyrazol-4-yl)-1-methyl-2-oxo-N-propyl-quinoline-3-carboxamide] | 0.6 | 4.44
Cc1nn(C)cc1-c1cccc2c(N)c(C(=O)NCC3CC3)c(=O)n(C)c12 [Example 81, 4-Amino-N-(cyclopropylmethyl)-8-(1,3-dimethylpyrazol-4-yl)-1-methyl-2-oxo-quinoline-3-carboxamide] | 0.81 | 2.19
Cc1nn(C)cc1-c1cccc2c(N)c(C(=O)NCC(C)C)c(=O)n(C)c12 [Example 82, 4-Amino-8-(1,3-dimethylpyrazol-4-yl)-N-isobutyl-1-methyl-2-oxo-quinoline-3-carboxamide] | 0.31 | 6.66
